Results published in paper PMC3274548, “Toward New Therapeutics for Skin and Soft Tissue Infections: Propargyl-Linked Antifolates Are Potent Inhibitors of MRSA and Streptococcus pyogenes” (PLoS ONE, 2012).
≈ marks a conversion by molar mass, not a printed value. Where two headings read alike, the source gives them in different places.

What was measured:
S. aureus DHFR = target: T1, S. aureus DHFR (Staphylococcus aureus, UniProt P0A017); assay: biochemical; assay type: biochemical; conditions: for IC50: S. aureus DHFR, average of at least three measurements, read-out: IC50 (nM) Sa; for Selectivity (h/Sa): IC50 (human)/IC50 (pathogen)
T1 construct: the DHFR gene was inserted into vector pET41 with a His8 tag for purification; His8; made in house; host or cells: E. coli BL21 (DE3)
Experimental: (§1) S. aureus DHFR was cloned, expressed and purified as previously described. Briefly, the DHFR gene was inserted into vector pET41 with a His8 tag for purification. The protein was expressed in E. coli BL21 (DE3) cells. […] The protein was concentrated to ∼5 mg/mL. S. pyogenes DHFR was cloned using PCR from genomic DNA and inserted in vector pET-41.
(§2) Enzyme inhibition assays were performed by monitoring the rate of NADPH oxidation by the DHFR enzyme at an absorbance of 340 nm over five minutes. Assays were performed in the presence of saturating concentrations of NADPH (100 µM) and initiated with dihydrofolate (1 mM). All assays were completed at 25°C in a buffer containing 20 mM TES pH 7.0, 50 mM KCl, 10 mM 2-mercaptoethanol, 0.5 mM EDTA and 1 mg/mL BSA. Inhibition was measured at least three times with inhibitor concentrations near the IC50 value and the average IC50 value is reported with a standard deviation.

S. pyogenes DHFR = S. pyogenes DHFR (Streptococcus pyogenes, UniProt Q9A091); assay: biochemical; assay type: biochemical; conditions: for IC50: S. pyogenes DHFR, average of at least three measurements, read-out: IC50 (nM) Sp; for Selectivity (h/Sp): IC50 (human)/IC50 (pathogen)
Experimental: as §1, §2

MRSA (S.aureus 13709) = assay: MIC, broth microdilution with Alamar Blue; assay type: cell-based, Staphylococcus aureus
Experimental: (§3) Stock solutions of standard antibiotics and test compounds were made at 50 mM in DMSO. […] For susceptibility testing, 10 µL of glycerol stock was suspended in a 10 mL shake flask culture of chemically defined Isosensitest broth (Oxoid) supplemented with 2% w/v glucose. A sample of the shake flask culture was diluted to 1×10^6 cells/mL in media and added to 96-well test plates (100 µL per well) containing test compounds dispensed in DMSO (2 µL) using serial two-fold dilutions. After an incubation period (30°C) determined from the strain specific doubling time, a 0.03% w/v aqueous solution of resazurin (10 µL) was added and the plates were allowed to incubate; each well was then scored for dye reduction.

Streptococcus pyogenes = assay: MIC, broth microdilution with Alamar Blue; assay type: cell-based
Experimental: as §3

MCF-10 cells = assay: Mammalian cell toxicity (Alamar Blue); assay type: cell-based; conditions: read-out: IC50 MCF-10
Experimental: Adherent cell lines were maintained in Eagle's Minimal Essential Media (Sigma-Aldrich, St. Louis, MO, USA) with 2 mM glutamine and Earle's Balanced Salt Solution (HyClone, Logan, UT, USA) adjusted to contain 1.5 g/L sodium bicarbonate, 0.1 mM non-essential amino acids, 1 mM sodium pyruvate and 10% fetal calf serum. Fetal calf serum used in these assays was lot matched throughout. […] Toxicity assays were conducted between passages 10–20. Target compound toxicity was measured by incubating the test compound with the cells for 4 h, washing the cells and finally treating the cells with Alamar Blue. After 12–24 h, the fluorescence of the reduced dye was measured. Fluorescence intensity as a function of test compound concentration was fit to the Fermi equation, using non-linear least squares regression analysis, to estimate IC50 values.

Human DHFR = target: T2, Human DHFR (Homo sapiens, UniProt P00374); assay: DHFR enzyme inhibition assay (NADPH oxidation, 340 nm); assay type: biochemical; conditions: human DHFR; average of at least three measurements; read-out: IC50 (nM) Human
T2 sequence (P00374 1-187): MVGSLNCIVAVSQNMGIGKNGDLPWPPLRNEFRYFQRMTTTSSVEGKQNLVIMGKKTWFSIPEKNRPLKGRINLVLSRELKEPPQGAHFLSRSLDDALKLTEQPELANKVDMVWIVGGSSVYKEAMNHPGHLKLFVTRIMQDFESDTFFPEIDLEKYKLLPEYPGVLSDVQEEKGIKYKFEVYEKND
Experimental: as §2

[1] = value in parentheses, read-out: MIC MRSA
[2] = value in parentheses, read-out: MIC S. pyogenes
[3] = Staphylococcus aureus, MRSA, value in parentheses, read-out: MIC MRSA
[4] = Staphylococcus aureus, MRSA, read-out: MIC MRSA
[5] = Streptococcus pyogenes, value in parentheses, read-out: MIC S. pyogenes
[6] = Streptococcus pyogenes, read-out: MIC S. pyogenes
[7] = IC50 (MCF10)/MIC (pathogen), both values in µM
[8] = 10% fetal calf serum, value in parentheses, read-out: MIC MRSA +FCS
[9] = 10% FCS, value in parentheses, read-out: MIC S. pyogenes +FCS

Chain of S. pyogenes DHFR (Q9A091 entry or part of it): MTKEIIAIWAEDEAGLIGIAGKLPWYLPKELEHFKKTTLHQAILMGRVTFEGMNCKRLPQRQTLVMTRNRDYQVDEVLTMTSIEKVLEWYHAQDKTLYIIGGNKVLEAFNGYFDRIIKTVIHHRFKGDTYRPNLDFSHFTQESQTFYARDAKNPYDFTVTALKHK

SMILES	IC50 (S. aureus DHFR)	IC50 (S. pyogenes DHFR)	MIC MRSA (MRSA (S.aureus 13709))	MIC (MRSA (S.aureus 13709); [1])	MIC S. pyogenes (Streptococcus pyogenes)	MIC (Streptococcus pyogenes; [2])	Selectivity (h/Sa) (S. aureus DHFR)	Selectivity (h/Sp) (S. pyogenes DHFR)	IC50 (Human DHFR)	MIC MRSA +FCS (MRSA (S.aureus 13709); 10% fetal calf serum)	MIC (MRSA (S.aureus 13709); [8])	MIC S. pyogenes +FCS (Streptococcus pyogenes; 10% FCS)	MIC (Streptococcus pyogenes; [9])	IC50 (MCF-10 cells; cytotoxicity, 4 h incubation)	MIC (MRSA (S.aureus 13709); [3])	MIC (MRSA (S.aureus 13709); [4])	MIC (Streptococcus pyogenes; [5])	MIC (Streptococcus pyogenes; [6])	other results
COc1cc(-c2ccc(C)cc2)cc(C(C)C#Cc2c(C)nc(N)nc2N)c1 (racemic) [Compound 2]	410 ± 36 nM	350 ± 44 nM	0.71 µg/mL (≈ 1.91 µM)	2 µM	0.024 µg/mL (≈ 0.0644 µM)	0.064 µM								55000 nM					
COc1cc(-c2cc(C)cc(C)c2)cc(C(C)C#Cc2c(C)nc(N)nc2N)c1 (stereo not drawn) [Compound 1]			5.76 µg/mL (≈ 14.9 µM)		0.097 µg/mL (≈ 0.251 µM)										16 µM	5.8 µg/mL	0.25 µM	0.1 µg/mL	IC50 (MCF-10 cells; Homo sapiens, MCF10, 4 h): 47000 nM
CCc1nc(N)nc(N)c1C#CCc1cc(-c2ccccc2)ccc1OC [Compound 7]	2.4 ± 0.2 nM						125	51	300 ± 10 nM						1 µM	0.18 µg/mL	0.016 µM	0.006 µg/mL	fold improvement in potency against S. aureus DHFR (S. aureus DHFR; relative to compound 1): 18 fold; Selectivity MRSA (MRSA (S.aureus 13709); [7]): 67; Selectivity S. pyogenes (Streptococcus pyogenes; [7]): 4,187; IC50 (MCF-10 cells; Homo sapiens, MCF10, cytotoxicity, 4 h incubation): 67000 nM

Continued, in another order:

IC50 (S. aureus DHFR)	IC50 (S. pyogenes DHFR)	MIC MRSA (MRSA (S.aureus 13709))	MIC (MRSA (S.aureus 13709); [1])	MIC S. pyogenes (Streptococcus pyogenes)	MIC (Streptococcus pyogenes; [2])	Selectivity (h/Sa) (S. aureus DHFR)	Selectivity (h/Sp) (S. pyogenes DHFR)	IC50 (Human DHFR)	MIC MRSA +FCS (MRSA (S.aureus 13709); 10% fetal calf serum)	MIC (MRSA (S.aureus 13709); [8])	MIC S. pyogenes +FCS (Streptococcus pyogenes; 10% FCS)	MIC (Streptococcus pyogenes; [9])	SMILES	IC50 (MCF-10 cells; cytotoxicity, 4 h incubation)	MIC (MRSA (S.aureus 13709); [3])	MIC (MRSA (S.aureus 13709); [4])	MIC (Streptococcus pyogenes; [5])	MIC (Streptococcus pyogenes; [6])	other results
28 ± 1.7 nM	26 ± 1.7 nM	0.66 µg/mL (≈ 2.01 µM)	2 µM	0.66 µg/mL (≈ 2.01 µM)	2 µM	10	11	290 ± 36 nM	5.2 µg/mL (≈ 15.8 µM)	16 µM	2.6 µg/mL (≈ 7.92 µM)	8 µM	CCc1nc(N)nc(N)c1C#CCc1cccc(-c2ccccc2)c1 [Compound 8]	32000 nM					
59 ± 2.3 nM	52 ± 1.7 nM	0.18 µg/mL (≈ 0.502 µM)	0.5 µM	0.18 µg/mL (≈ 0.502 µM)	0.5 µM	2.4	3	140 ± 1 nM	1.4 µg/mL (≈ 3.91 µM)	4 µM	0.72 µg/mL (≈ 2.01 µM)	2 µM	CCc1nc(N)nc(N)c1C#CCc1cc(OC)cc(-c2ccccc2)c1 [Compound 9]	199000 nM					
